In patent US9253984B2, “Herbicidal compositions comprising pyroxasulfone VII” (BASF SE, priority 2008, dated 2016):
Like-named read-outs stand apart in the source and are kept apart here.

Legend:
[1] = tested on: Setaria lutescens (SETLU, yellow foxtail); test: greenhouse post-emergence herbicidal activity; type: in vivo; details: read-out: observed % activity; for inhibition at 13 g/ha: 13 g ai/ha; for inhibition at 50 g/ha: 50 g ai/ha
Source text: (§1) For the post-emergence treatment, the test plants were first grown to a height of 3 to 20 cm, depending on the plant habit, and only then treated. Here, the herbicidal compositions were suspended or emulsified in water as distribution medium and sprayed using finely distributing nozzles.
(§2) In the examples, the solvent used was water. […] In the examples, the solvent used was water.
(§3) Dicamba was used as a commercial aqueous solution having an active ingredient concentration of 480 g/l.
(§4) The test period extended over 21 days.
(§5) The evaluation for the damage caused by the chemical compositions was carried out using a scale from 0 to 100%, compared to the untreated control plants. Here, 0 means no damage and 100 means complete destruction of the plants.
(§6) The value E, which is to be expected if the activity of the individual compounds is just additive, was calculated using the method of S. R. Colby (1967) “Calculating synergistic and antagonistic responses of herbicide combinations”, Weeds 15, p. 22 ff. E=X+Y−(X·Y/100) where X=effect in percent using herbicide A at an application rate a; • Y=effect in percent using herbicide B at an application rate b; • E=expected effect (in %) of A+B at application rates a+b.
(§7) If the value observed in this manner is higher than the value E calculated according to Colby, a synergistic effect is present.

[2] = tested on: Ipomoea purpurea (PHBPU, tall morningglory); test: greenhouse post-emergence herbicidal activity; type: in vivo; details: 20 DAT
Source text: as §1, §2, §3, §4, §5, §6, §7

[3] = tested on: Echinochloa crus-galli (ECHCG, barnyardgrass); test: greenhouse post-emergence herbicidal activity; type: in vivo; details: read-out: observed % activity; for inhibition at 13 g/ha: 13 g ai/ha; for inhibition at 100 g/ha: 100 g ai/ha
Source text: as §1, §2, §3, §4, §5, §6, §7

[4] = tested on: Polygonum convolvulus (POLCO, wild buckwheat); test: greenhouse post-emergence herbicidal activity; type: in vivo; details: 20 DAT
Source text: as §1, §2, §3, §4, §5, §6, §7

[5] = tested on: Setaria faberii (SETFA, giant foxtail); test: greenhouse post-emergence herbicidal activity; type: in vivo; details: Setaria faberi, read-out: observed % activity; for inhibition at 50 g/ha: 50 g ai/ha; for inhibition at 100 g/ha: 100 g ai/ha
Source text: as §1, §2, §3, §4, §5, §6, §7

[6] = tested on: Alopecurus myosuroides (ALOMY, blackgrass); test: greenhouse post-emergence herbicidal activity; type: in vivo; details: read-out: observed % activity; for inhibition at 13 g/ha: 13 g ai/ha; for inhibition at 50 g/ha: 50 g ai/ha
Source text: as §1, §2, §3, §4, §5, §6, §7

[7] = tested on: Matricaria inermis (MATIN, scentless mayweed); test: greenhouse pre-emergence herbicidal activity; type: in vivo; details: read-out: observed % activity; for inhibition at 50 g/ha: 50 g ai/ha; for inhibition at 200 g/ha: 200 g ai/ha
Procedure: (§8) The containers were irrigated gently to promote germination and growth and subsequently covered with transparent plastic hoods until plant had rooted.
as §2, §3, §4, §5, §6, §7

[8] = tested on: Ambrosia artemisifolia (AMBEL, common ragweed); test: greenhouse pre-emergence herbicidal activity; type: in vivo; details: read-out: observed % activity; for inhibition at 50 g/ha: 50 g ai/ha; for inhibition at 200 g/ha: 200 g ai/ha
Procedure: as §8, §2, §3, §4, §5, §6, §7

[9] = tested on: Helianthus annuus (HELAN, sunflower); test: greenhouse pre-emergence herbicidal activity; type: in vivo; details: read-out: observed % activity; for inhibition at 25 g/ha: 25 g ai/ha; for inhibition at 50 g/ha: 50 g ai/ha; for inhibition at 100 g/ha: 100 g ai/ha; for inhibition at 200 g/ha: 200 g ai/ha
Procedure: as §8, §2, §3, §4, §5, §6, §7

[10] = tested on: Xanthium strumarium (XANST, cocklebur); test: greenhouse pre-emergence herbicidal activity; type: in vivo; details: read-out: observed % activity; for inhibition at 25 g/ha: 25 g ai/ha; for inhibition at 100 g/ha: 100 g ai/ha; for inhibition at 200 g/ha: 200 g ai/ha
Procedure: as §8, §2, §3, §4, §5, §6, §7

[11] = tested on: Abutilon theophrasti (ABUTH, velvetleaf); test: greenhouse pre-emergence herbicidal activity; type: in vivo; details: read-out: observed % activity; for inhibition at 25 g/ha: 25 g ai/ha; for inhibition at 50 g/ha: 50 g ai/ha; for inhibition at 200 g/ha: 200 g ai/ha
Procedure: as §8, §2, §3, §4, §5, §6, §7

harmful plants = details: known from Y. Yamaji et al., 2006; cited from earlier work

Cn1nc(C(F)(F)F)c(CS(=O)(=O)C2=NOC(C)(C)C2)c1OC(F)F [pyroxasulfone, 3-[5-(difluoromethoxy)-1-methyl-3-(trifluoromethyl)pyrazol-4-ylmethylsulfonyl]-4,5-dihydro-5,5-dimethyl-1,2-oxazole]
inhibition at 13 g/ha ([1]; 168 h, 7 DAT): 0%
inhibition at 13 g/ha ([1]; 480 h, 20 DAT): 65%
observed activity in % destruction 20 days after treatment ([2]; 13 g ai/ha): 30%
inhibition at 13 g/ha ([3]; 168 h, 7 DAT): 25%
inhibition at 13 g/ha ([3]; 480 h, 20 DAT): 80%
observed activity in % destruction 20 days after treatment ([4]; 100 g ai/ha): 55%
inhibition at 50 g/ha ([5]; 168 h, 7 DAT): 65%
inhibition at 50 g/ha ([5]; 480 h, 20 DAT): 90%
inhibition at 13 g/ha ([6]; 168 h, 7 DAT): 0%
inhibition at 13 g/ha ([6]; 480 h, 20 DAT): 15%
inhibition at 50 g/ha ([7]; 192 h, 8 DAT): 20%
inhibition at 50 g/ha ([7]; 480 h, 20 DAT): 85%
inhibition at 50 g/ha ([8]; 192 h, 8 DAT): 50%
inhibition at 50 g/ha ([8]; 480 h, 20 DAT): 80%
inhibition at 25 g/ha ([9]; 192 h, 8 DAT): 0%
inhibition at 50 g/ha ([9]; 192 h, 8 DAT): 0%
inhibition at 25 g/ha ([9]; 480 h, 20 DAT): 0%
inhibition at 50 g/ha ([9]; 480 h, 20 DAT): 0%
inhibition at 25 g/ha ([10]; 192 h, 8 DAT): 0%
inhibition at 25 g/ha ([10]; 480 h, 20 DAT): 0%
inhibition at 25 g/ha ([11]; 192 h, 8 DAT): 50%
inhibition at 50 g/ha ([11]; 192 h, 8 DAT): 50%
inhibition at 25 g/ha ([11]; 480 h, 20 DAT): 80%
inhibition at 50 g/ha ([11]; 480 h, 20 DAT): 98%
post-emergence activity (harmful plants): only poor post-emergence activity

COc1c(Cl)ccc(Cl)c1C(=O)O [dicamba]
inhibition at 50 g/ha ([1]; 168 h, 7 DAT): 40%
inhibition at 50 g/ha ([1]; 480 h, 20 DAT): 10%
observed activity in % destruction 20 days after treatment ([2]; 200 g ai/ha): 90%
inhibition at 100 g/ha ([3]; 168 h, 7 DAT): 20%
inhibition at 100 g/ha ([3]; 480 h, 20 DAT): 15%
observed activity in % destruction 20 days after treatment ([4]; 50 g ai/ha): 80%
inhibition at 50 g/ha ([5]; 168 h, 7 DAT): 25%
inhibition at 100 g/ha ([5]; 168 h, 7 DAT): 25%
inhibition at 50 g/ha ([5]; 480 h, 20 DAT): 0%
inhibition at 100 g/ha ([5]; 480 h, 20 DAT): 0%
inhibition at 50 g/ha ([6]; 168 h, 7 DAT): 10%
inhibition at 50 g/ha ([6]; 480 h, 20 DAT): 20%
inhibition at 200 g/ha ([7]; 192 h, 8 DAT): 50%
inhibition at 200 g/ha ([7]; 480 h, 20 DAT): 65%
inhibition at 200 g/ha ([8]; 192 h, 8 DAT): 65%
inhibition at 200 g/ha ([8]; 480 h, 20 DAT): 95%
inhibition at 50 g/ha ([9]; 192 h, 8 DAT): 30%
inhibition at 100 g/ha ([9]; 192 h, 8 DAT): 30%
inhibition at 200 g/ha ([9]; 192 h, 8 DAT): 75%
inhibition at 50 g/ha ([9]; 480 h, 20 DAT): 35%
inhibition at 100 g/ha ([9]; 480 h, 20 DAT): 50%
inhibition at 200 g/ha ([9]; 480 h, 20 DAT): 85%
inhibition at 100 g/ha ([10]; 192 h, 8 DAT): 50%
inhibition at 200 g/ha ([10]; 192 h, 8 DAT): 85%
inhibition at 100 g/ha ([10]; 480 h, 20 DAT): 80%
inhibition at 200 g/ha ([10]; 480 h, 20 DAT): 95%
inhibition at 200 g/ha ([11]; 192 h, 8 DAT): 40%
inhibition at 200 g/ha ([11]; 480 h, 20 DAT): 70%
